Laboratory results published in patent US20090028840A1, “Compositions For Preventing Or Treating Arthritis Comprising Lactic Acid Bacteria and Collangen As Active Ingredients” (Gwangju Institute of Sciecne and Technology, priority 2005, published 2009).

Legend:
[1] = test system: collagen-induced arthritis (CIA); experiment: Comparative tests for treatment efficacy in collagen-induced arthritis (CIA) rats; assay type: in vivo, Lewis rat; conditions: acute phase (until 35 days after immunization), FIGS. 3 and 4
[2] = test system: infiltration of lymphocytes into joint tissues; experiment: Histological analysis of ankle joints of CIA rats (hematoxylin and eosin); assay type: in vivo, rat; conditions: 35 days after immunization, FIG. 5
From the text: Joints dissected were washed with PBS and fixed for 24 hr in 4% paraformaldehyde, followed by decalcification for 2-3 days in decalcification solution (Merck). The decalcified joint tissues were embedded in paraffin, sectioned to […], deparaffinized, stained with hematoxylin and eosin, and observed under microscope. A basic dye, hematoxylin binds to nucleus containing negative-charged DNA and RNA molecules and an acidic dye, eosin binds to cytoplasmic proteins and collagen with positive charge.

Compound | treatment efficacy on arthritis during acute phase [1] | infiltration of lymphocytes (immune cells) into joints [2]
CN(Cc1cnc2nc(N)nc(N)c2n1)c1ccc(C(=O)N[C@@H](CCC(=O)O)C(=O)O)cc1 [MTX, methotrexate] | better until acute phase (until 35 days after immunization) than the present composition | little or no occurrence of the infiltration of lymphocytes
Lactobacillus casei [lactic acid bacteria] | low | 
